Measured values taken from patent US20200339544A1 (JOINT STOCK COMPANY "BIOCAD", priority 2017, published 2020).
Where two headings read alike, the source gives them in different places.

Assays:
[1] = Chemical stability in human blood plasma; assay type: in vitro ADME; conditions: pooled human blood plasma; 10 μm; 4 hours at 37° C.; substance amount remaining
Procedure: 2) Determination of chemical stability in human blood plasma.
Determination of stability in human blood plasma was performed using pooled human blood plasma taken from ten healthy donors. The initial candidate solution (10 mM in DMSO) was diluted with pooled blood plasma to a concentration of 10 μm (test solution). The test solution was incubated in a dry block thermostat for 4 hours at 37° C. HPLC with Agilent 1200 liquid chromatography system (Agilent, USA) was employed to determine peak areas of the compounds in test samples, said peak areas corresponding to the initial test time (prior to incubation) and the final test time (after incubation in a dry block thermostat for 4 hours at 37° C.), proteins were preliminarily precipitated with acetonitrile. We used gradient elution (1 mL/min flow rate). Substance amount in % in a sample after thermostatting was determined.
The stability of the compounds was estimated.

[2] = Enzyme stability in human liver S9 fractions; assay type: in vitro ADME; conditions: 0.5 mg/mL pooled human liver S9 fractions; 10 μM compound; 37° C.; pH 7.4; read-out: Stability in liver S9 fractions, Clint
Procedure: Determination of enzyme stability.
Measuring of candidate enzyme stability enabled estimation of the stability of the compounds towards the action of liver enzymes.
Enzyme degradation rate was measured by incubating the reaction mixture in a dry block thermostat at 37° C., said reaction mixture comprising 0.5 mg/mL of pooled human liver S9 fractions (XenoTech, USA, cat # H0610), 10 μM compound, 2 mM β-nicotinamide adenine dinucleotide (Carbosynth, UK, cat # NN10871) and 4 mM magnesium chloride in 0.1 M sodium-phosphate buffer, pH=7.4. The reaction was quenched with acetonitrile (100 μL of acetonitrile/100 μL of the reaction mixture). After quenching, the samples were centrifuged at 10000 rpm for 10 minutes. Supernatant fluid was tested by chromatographic technique using Agilent1200 (Agilent, USA). We used gradient elution (1 mL/min flow rate). A graph of the logarithm of substance's peak area as a function of time was made. The dependent factor of the line corresponded to the elimination rate constant K based on which the drug's half-life T½ and intrinsic clearance CLint were calculated:
Based on the data obtained, candidate enzyme stability in human liver S9 fractions was determined (see Table 11).

WT EGFR (Wild-Type EGFR) = biological target: T1, WT EGFR (Wild-Type EGFR) (Homo sapiens, UniProt P00533); test: Inhibition of WT EGFR kinase activity (ADP-Glo); assay type: biochemical
T1 construct: purchased SignalChem
Procedure: (§1) To assess IC50 values of the compounds disclosed herein, a biochemical assay of inhibition of kinase activity in a non-cellular system and a functional cellular anti-proliferation assay were used.
(§2) To assess inhibition of WT EGFR (Wild-Type EGFR), DM EGFR (DoubleMutantEGFR, L828R/T790M) kinase activity, SignalChem kinase system and ADP-Glo™ Kinase Assay (V9102, Promega) detection kit were used.
(§3) The measurements were carried out in a 25 μL reaction volume using a 96-well plate. […] The solution of 0.5 mg/mL peptide substrate and 50 μM ATP in the same buffer were added; the solution was incubated for 180 minutes at 37° C. To detect the amount of ATP taken up during the kinase reaction, the ADP Glo Detection Kit (V9102, Promega) was used. The luminescence was measured with the Infinite M200Pro plate spectrophotometer (Tecan, Switzerland). IC50 values were calculated using Magellan 7.2 software (Tecan, Switzerland) approximating experimental points by four-parameter logistic model with the optimization by Levenberg-Marquardt (Table 14).

[3] = biological target: T2, DM EGFR (DoubleMutantEGFR, L828R/T790M) (Homo sapiens, UniProt P00533, L858R/T790M); test: Inhibition of DM EGFR kinase activity (ADP-Glo); assay type: biochemical; conditions: for IC50: inhibition of kinase activity, EGFR DM (L828R/T790M); for SI, IC50(WT)/IC50(DM): selectivity index, kinase EGFR WT vs EGFR DM
T2 construct: purchased SignalChem
Procedure: as §1, §2, §3

[4] = test system: A549 (lung adenocarcinoma, WT); test: Antiproliferative activity on A549 cells (Alamar Blue); assay type: cell-based; conditions: Homo sapiens, antiproliferative test
Procedure: (§4) Antiproliferative activity of EGFR inhibitors (Tables 15 and 16) was measured in cell-based bioassay on continuous epithelial cell cultures: A549 (lung adenocarcinoma, ATCC® CRM-CCL-185™—WT), HCC827 (lung adenocarcinoma, ATCC® CRL-2868™—SM (SingleMutantEGFR, exon19delE746-A750)) and H1975 (lung adenocarcinoma, ATCC® CRL-5908™—DM (DoubleMutantEGFR, L828R/T790M)) using cell viability reagent Alamar Blue (ThermoFisher, # DAL1100). Cells were cultured in 10% FBS-supplemented (Gibco, #16140071) RPMI-1640 (PanEco, S330p) for at least 1 passage after thawing, washed with PBS and passaged in 96-well culture plates (3599, Corning) with RPMI-1640 growth medium supplemented with 2% FBS in an amount of 5*10^3 cells/well for A549, 10*10^3 cells/well for HCC827 and 15*10^3 cells/well for H1975 in 100 μL, and incubated at 37° C. in an incubator (Thermo Forma, USA) under 5% of CO2 for 16-18 h for cell attachment.
(§5) The test compounds were dissolved in DMSO in the selected range of concentrations and transferred to RPMI-1640 medium (PanEco, S330p) supplemented with 2% FBS. After adding 50 μl of the prepared dilutions to the cells, the incubation mixture contained the final concentrations of the test substances and no more than 1% DMSO. The plates were Incubated at 37° C. for 72 h. After incubation, 15 μl of Alamar Blue vital dye (ThermoFisher, # DAL1100) was added to each well. The plates were shaken on an orbital shaker (Biosan, Latvia) and further incubated for 3-5 h in a CO2 incubator (Thermo Forma, USA). Number of living cells was estimated using a plate spectrophotometer Infinite M200Pro, (Tecan, Switzerland) measuring fluorescent signal at the excitation wavelength (λEx) of 540 nm and emission wavelength (λEm) of 590 nm.
IC50 was calculated using Magellan 7.2 software (Tecan, Switzerland) approximating experimental points by four-parameter logistic model with the optimization by Levenberg-Marquardt.
(§6) The ratio between IC50 for cell lines containing wild-type EGFR (A549) and IC50 for cell lines containing target mutation L828R/T790M (H1975) is the selectivity index (SI): […]

[5] = test system: H1975 (lung adenocarcinoma, DM, L828R/T790M); test: Antiproliferative activity on H1975 cells (Alamar Blue); assay type: cell-based; conditions: for IC50: Homo sapiens, NCI-H1975, H1975 cells; for SI IC50(A549)/IC50(DM): selectivity index, A549 vs H1975 cells
Procedure: as §4, §5
IC50 was calculated using Magellan 7.2 software (Tecan, Switzerland) approximating experimental points by four-parameter logistic model with the optimization by Levenberg-Marquardt. […]
as §6

[6] = General cytotoxicity on HepG2 cells; assay type: cell-based; conditions: human; general cytotoxicity, HepG2 cells, 72 hours, average of several tests
Procedure: (§7) The CC50 values were determined in the test for General cytotoxicity on HepG2 cells (rhepatocellular carcinoma, ATCC® HB-8065™) (Table 16). The cells were subcultured in DMEM medium (PanEco, S420p) supplemented with 10% FBS (Gibco, #16140071) for at least 1 passage after thawing, washed with PBS and passaged in 96-well culture plates (3599, Corning) at a concentration of 2*10^4 cells/100 μL per well, and incubated for 16-18 h. The test substances were titrated in DMSO and transferred to DMEM (PanEco, S420p) medium supplemented with 2% FBS, added to the cells and incubated at 37° C. for 72 hours; viability of the cells was then assessed using Alamar Blue dye (ThermoFisher, # DAL1100). CC50 was determined similarly to IC50.
(§8) The ratio between CC50 for HepG2 cell line and IC50 for H1975 cell line is the therapeutic index (TI): […]

HepG2 cells = test: General cytotoxicity on HepG2 cells; assay type: cell-based; conditions: therapeutic index, CC50 HepG2 / IC50 H1975
Procedure: as §7, §8

[7] = average values obtained in several tests, Table 16, read-out: H1975 (DM) IC50
[8] = antiproliferative test, Table 15, read-out: IC50 H1975 (DM)

| SMILES | Stability in blood plasma, % [1] | Intrinsic clearance in human liver S9 fractions at 10 µM [2] | IC50 (WT EGFR (Wild-Type EGFR)) | IC50 [3] | SI, IC50(WT)/IC50(DM) [3] | IC50 [4] | IC50 [5, 7] | IC50 [5, 8] | SI IC50(A549)/IC50(DM) [5] | CC50 at 72 h [6] | TI, CC50/IC50 (HepG2 cells) |
| --- | --- | --- | --- | --- | --- | --- | --- | --- | --- | --- | --- |
| C=CC(=O)Nc1cc(Nc2cc(C(=O)c3ccc(OC)cc3OC)ccn2)c(OC)cc1N(C)CCN(C)C [EGFR_3365_87, N-(5-((4-(2,4-dimethoxybenzoyl)pyridin-2-yl)amino)-2-((2-(dimethylamino)ethyl)(methyl)amino)-4-methoxyphenyl)acrylamide] | 73.3% | 11.6 µL/min/mg | 67.4 nM | 2.75 nM | 24.50 | 8020 nM | 57.6 nM | 57.6 nM | 139 | 19500 nM | 338 |
| C=CC(=O)Nc1cc(Nc2nccc(C(=O)c3ccc(OC)cc3OC(C)C)n2)c(OC)cc1N(C)CCN(C)C [EGFR_3365_104] | 77.2% | 21.8 µL/min/mg | 113 nM | 6.42 nM | 17.61 | 3780 nM | 258 nM | 258 nM | 15 | 18700 nM | 73 |
| C=CC(=O)Nc1cc(Nc2cc(C(=O)c3ccccc3OC)ccn2)c(OC)cc1N(C)CCN(C)C [EGFR_3365_88, N-(2-((2-(dimethylamino)ethyl)(methyl)amino)-4-methoxy-5-((4-(2-methoxybenzoyl)pyridin-2-yl)amino)phenyl)acrylamide] | 68.2% | 17 µL/min/mg | 78.2 nM | 5.09 nM | 15.37 | 14900 nM | 62.6 nM | 62.6 nM | 238 | 26900 nM | 429 |

More lines, main results first:

| Stability in blood plasma, % [1] | Intrinsic clearance in human liver S9 fractions at 10 µM [2] | IC50 (WT EGFR (Wild-Type EGFR)) | IC50 [3] | SI, IC50(WT)/IC50(DM) [3] | IC50 [4] | IC50 [5, 7] | IC50 [5, 8] | SMILES | SI IC50(A549)/IC50(DM) [5] | CC50 at 72 h [6] | TI, CC50/IC50 (HepG2 cells) |
| --- | --- | --- | --- | --- | --- | --- | --- | --- | --- | --- | --- |
| 94.0% | 10.5 µL/min/mg | 43.4 nM | 2.54 nM | 17.09 | 13600 nM | 4.42 nM | 4.42 nM | C=CC(=O)Nc1cc(Nc2nccc(C(=O)c3ccc(N4CC[C@@H](O)C4)cc3)n2)c(OC)cc1N(C)CCN(C)C [EGFR_3365_113, (R)-N-(2-((2-(dimethylamino)ethyl)(methyl)amino)-5-((4-(4-(3-hydroxypyrrolidin-1-yl)benzoyl)pyrimidin-2-yl)amino)-4-methoxyphenyl)acrylamide] | 3073 | 46300 nM | 10481 |
| 98.2% | 14.8 µL/min/mg | 25.2 nM | 3.14 nM | 8.03 | 17700 nM | 8.66 nM | 8.66 nM | C=CC(=O)Nc1cc(Nc2nccc(C(=O)c3ccc(N4CCC[C@@H](O)C4)cc3)n2)c(OC)cc1N(C)CCN(C)C [EGFR_3365_109, (R)-N-(2-((2-(dimethylamino)ethyl)(methyl)amino)-5-((4-(4-(3-hydroxypiperidin-1-yl)benzoyl)pyrimidin-2-yl)amino)-4-methoxyphenyl)acrylamide] | 2043 | 45400 nM | 5245 |
| 96.2% | 20.4 µL/min/mg | 22.6 nM | 2.14 nM | 10.60 | 12600 nM | 13.2 nM | 13.2 nM | C=CC(=O)Nc1cc(Nc2nccc(C(=O)c3ccc(OC(C)C)cc3OC)n2)c(OC)cc1N(C)CCN(C)C [EGFR_3365_103, N-(2-((2-(dimethylamino)ethyl)(methyl)amino)-5-((4-(4-isopropoxy-2-methoxybenzoyl)pyrimidin-2-yl)amino)-4-methoxyphenyl) acrylamide] | 954 | 29400 nM | 2232 |
| 89.4% | 11.3 µL/min/mg | 109 nM | 2.93 nM | 37.17 | 84100 nM | 21.6 nM | 21.6 nM | C=CC(=O)Nc1cc(Nc2nccc(C(=O)c3ccc(NCCOC)cc3)n2)c(OC)cc1N(C)CCN(C)C [EGFR_3365_105, N-(2-((2-(dimethylamino)ethyl)(methyl)amino)-4-methoxy-5-((4-(4-((2-methoxyethyl)amino)benzoyl)pyrimidin-2-yl)amino)phenyl)acrylamide] | 3898 | 45600 nM | 2114 |
